# According to patent US20090176839A1, “FORMULATIONS OF 3-(6-(1-(2,2-DIFLUOROBENZO[D][1,3]DIOXOL-5-YL) CYCLOPROPANECARBOXAMIDO)-3-METHYLPYRIDIN-2-YL)BENZOIC ACID” (priority 2007, published 2009):
# Where two headings read alike, the source gives them in different places.
# Columns and labels:
# [1] = Toxicokinetics in acute oral toxicity study in rats; assay type: in vivo
# Description: Compound 1 was also well absorbed in rats with time to reach maximum plasma concentrations(tmax) ranging from 4.0 to 24.0 hr.
# [2] = Toxicokinetics in 7-day dose range finding study in rats; assay type: in vivo; conditions: 300 mg/kg/day; for Cmax: rat, plasma, oral
# Method: The animals were dosed orally with the vehicle (0.5% methylcellulose in water), or 15, 75, or 150 mg/kg Compound 1 twice daily for 7 consecutive days. The two daily doses were administered approximately 10 hours apart and the dose volume was 5 mL/kg/b.i.d. for all dose groups. At the end of the dosing period, all animals were euthanized and necropsied. Satellite animals (6/sex/Groups 2-4) were dosed in the same manner as the toxicity animals and plasma samples were collected on Days 1 and 7 for toxicokinetic (TK) analysis. Parameters evaluated during the study were: viability, clinical observations, body weights, feed consumption, clinical pathology (termination), organ weights, macroscopic observations and microscopic pathology.
# The plasma AUC0-24 data on Day 1 was consistent with previously conducted single dose studies of Compound 1 in the rat.
# [3] = Toxicokinetics in 14-day oral toxicity study in rats; conditions: rat, in vivo, 600 mg/kg/day
# Description: There were no major differences noted in TK parameters between males and females, or when comparing study Day 1 to study Day 14.
# [4] = target: T1, Thromboxane A2 (TXA2) receptor (TP receptor) (Homo sapiens, UniProt P21731); assay: Radiolabel binding counter screen (MDS Pharma Services)
# T1 construct: MDS Pharma Services MDSPS PT#: 1083321
# T1 sequence (P21731 1-343): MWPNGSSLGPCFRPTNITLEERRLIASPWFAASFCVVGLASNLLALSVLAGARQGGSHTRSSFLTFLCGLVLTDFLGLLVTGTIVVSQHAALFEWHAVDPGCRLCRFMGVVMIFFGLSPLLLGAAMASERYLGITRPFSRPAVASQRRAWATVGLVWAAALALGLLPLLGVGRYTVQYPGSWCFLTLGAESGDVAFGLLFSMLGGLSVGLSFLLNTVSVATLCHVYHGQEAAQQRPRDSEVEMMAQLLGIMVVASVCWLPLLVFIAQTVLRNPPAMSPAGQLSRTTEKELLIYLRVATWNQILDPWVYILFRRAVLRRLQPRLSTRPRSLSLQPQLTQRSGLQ
# Description: Compound 1 was counter screened against a broad panel of enzymes and receptors using radiolabel binding studies (see MDS Pharma Services, LeadProfiling and SpectrumScreen, MDSPS PT#: 1083321).
# [5] = target: hERG (Homo sapiens, UniProt Q12809); assay: hERG channel competitive binding (3H-astemizole); conditions: probe 3H-astemizole
# [6] = test system: gastrointestinal, respiratory, CNS, or cardiovascular systems; assay: Safety pharmacology studies (ICH S7A/S7B battery); assay type: in vivo, rat, dog
# [7] = Single oral pharmacokinetics of the free form in suspension in male rats; assay type: in vivo, male Sprague Dawley rats; conditions: for AUC(0-inf): free form suspension, mean (SD)
# Method: The pharmacokinetics of Compound 1 were assessed in the same species used in the toxicology studies: CD-1 mice, Sprague Dawley rats and beagle dogs. The pharmacokinetics of Compound 1 were also assessed in cynomolgus monkeys.
# Non-validated research grade assays were used for these analyses. All pharmacokinetic studies were conducted using fed animals unless otherwise specified.
# At 600 mg/kg, the increase in systemic exposure was less than proportional to the increase in dose. Bioavailability ranged from 47% to ˜100% across the 1 to 600 mg/kg oral dose range in rats, indicating excellent absorption of the compound.
# [8] = test system: rats; conditions: rat, in vivo, 14 days
# Method: (§1) Repeat-dose oral toxicity studies of 7- and 14-days duration have been conducted in rats (up to 600 mg/kg/day) and dogs (up to 200 mg/kg/day).
# [9] = test system: dogs; conditions: dog, in vivo
# Method: as §1
# [10] = Sprague Dawley, rat, plasma, po, male rats, free form, 1 mg/kg
# [11] = Sprague Dawley, rat, plasma, po, male rats, free form, 30 mg/kg
# [12] = Sprague Dawley, rat, plasma, po, male rats, free form, 150 mg/kg
# [13] = Sprague Dawley, rat, plasma, po, male rats, free form, 300 mg/kg
# [14] = Sprague Dawley, rat, plasma, po, male rats, free form, 600 mg/kg
# [15] = male rats, free form, 150 mg/kg
# [16] = male rats, free form, 300 mg/kg
# [17] = male rats, free form, 600 mg/kg
# Sequence of hERG (Q12809 whole entry): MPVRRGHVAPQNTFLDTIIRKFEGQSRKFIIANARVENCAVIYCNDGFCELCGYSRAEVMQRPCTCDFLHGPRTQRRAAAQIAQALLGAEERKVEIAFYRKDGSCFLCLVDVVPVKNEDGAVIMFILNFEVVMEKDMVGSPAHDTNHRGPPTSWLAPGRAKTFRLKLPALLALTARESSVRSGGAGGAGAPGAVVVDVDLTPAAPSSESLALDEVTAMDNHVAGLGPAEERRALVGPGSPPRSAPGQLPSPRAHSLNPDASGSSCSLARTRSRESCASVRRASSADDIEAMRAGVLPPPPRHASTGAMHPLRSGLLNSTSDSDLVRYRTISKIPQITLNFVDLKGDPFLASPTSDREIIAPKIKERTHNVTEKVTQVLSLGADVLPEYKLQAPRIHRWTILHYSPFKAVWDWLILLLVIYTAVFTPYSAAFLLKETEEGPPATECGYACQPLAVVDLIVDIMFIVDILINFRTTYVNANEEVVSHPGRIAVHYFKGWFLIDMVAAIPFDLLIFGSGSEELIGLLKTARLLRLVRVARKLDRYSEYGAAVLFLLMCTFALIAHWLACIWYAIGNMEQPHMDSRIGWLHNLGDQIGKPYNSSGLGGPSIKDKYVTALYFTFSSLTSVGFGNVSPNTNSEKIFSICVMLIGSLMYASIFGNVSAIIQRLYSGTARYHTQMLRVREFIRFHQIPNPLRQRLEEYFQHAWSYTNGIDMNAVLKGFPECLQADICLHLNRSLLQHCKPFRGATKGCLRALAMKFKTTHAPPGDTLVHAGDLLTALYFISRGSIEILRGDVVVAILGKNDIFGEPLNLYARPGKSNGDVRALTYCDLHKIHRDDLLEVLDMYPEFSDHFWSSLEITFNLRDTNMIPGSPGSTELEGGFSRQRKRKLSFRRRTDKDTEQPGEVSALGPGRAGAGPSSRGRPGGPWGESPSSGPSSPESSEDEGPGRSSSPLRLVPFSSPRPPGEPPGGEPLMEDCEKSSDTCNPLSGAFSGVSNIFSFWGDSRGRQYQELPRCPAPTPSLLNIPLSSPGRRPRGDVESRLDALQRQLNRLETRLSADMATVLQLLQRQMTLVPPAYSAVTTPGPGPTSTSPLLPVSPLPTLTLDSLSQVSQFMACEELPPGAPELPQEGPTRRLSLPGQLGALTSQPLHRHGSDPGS
compound,measurement,setting,value
"Cc1ccc(NC(=O)C2(c3ccc4c(c3)OC(F)(F)O4)CC2)nc1-c1cccc(C(=O)O)c1 [Compound 1, 3-(6-(1-(2,2-difluorobenzo[d][1,3]dioxol-5-yl)cyclopropanecarboxamido)-3-methylpyridin-2-yl)benzoic acid]","AUC0-24hr values, females vs. males",[1]; 500 mg/kg dose group,more than 2 fold
same,Cmax,"[1]; Sprague Dawley, rat, plasma, po, 2000 mg/kg, Male",306 µg/mL
same,AUC(0-t),"[1]; Sprague Dawley, rat, plasma, po, 2000 mg/kg, Male, read-out: AUC0-24 h",6110 µg·h/mL
same,Tmax,"[1]; Sprague Dawley, rat, plasma, po, 2000 mg/kg, Male, read-out: tmax",24 h
same,Tmax,"[1]; both sexes, rat, plasma, po, 500 to 2000 mg/kg, read-out: time to reach maximum plasma concentrations (tmax)",4 to 24 h
same,half-life,"[1]; both sexes, rat, plasma, po, could not be calculated at 1000 and 2000 mg/kg, read-out: elimination half-life (t1/2)",9.4 to 10.8 h
same,Cmax,"[1]; male, rat, plasma, po, males at 500 mg/kg",135 µg/mL
same,AUC(0-t),"[1]; male, rat, plasma, po, males at 500 mg/kg, read-out: AUC0-24hr",1390 µg·h/mL
same,Cmax,"[1]; male, rat, plasma, po, males at 2000 mg/kg",306 µg/mL
same,Cmax,"[1]; rat, plasma, po, 2000 mg/kg, Female",305 µg/mL
same,AUC(0-t),"[1]; rat, plasma, po, 2000 mg/kg, Female, read-out: AUC0-24 h",6750 µg·h/mL
same,Tmax,"[1]; rat, plasma, po, 2000 mg/kg, Female, read-out: tmax",10 h
same,average plasma concentrations,[2]; females,~190 µM
same,Cmax,"[2]; female, females",~280 µM
same,Cmax,"[2]; male, males",~430 µM
same,AUC(0-t),"[3]; both sexes, rats, at the NOAEL (600 mg/kg/day), read-out: average AUC0-24hr",3950 µg·h/mL
same,Cmax,"[3]; both sexes, rats, at the NOAEL (600 mg/kg/day), read-out: average Cmax",222 µg/mL
same,Tmax,"[3]; female, Sprague Dawley, Study Day 1, Female",4 h
same,AUC(0-t),"[3]; female, Sprague Dawley, Study Day 1, Female, read-out: AUC0-24 hr",4430 µg·h/mL
same,Cmax,"[3]; female, Sprague Dawley, Study Day 1, Female, read-out: Cmax",273 µg/mL
same,Tmax,"[3]; female, Sprague Dawley, Study Day 14, Female",10 h
same,AUC(0-t),"[3]; female, Sprague Dawley, Study Day 14, Female, read-out: AUC0-24 hr",5500 µg·h/mL
same,Cmax,"[3]; female, Sprague Dawley, Study Day 14, Female, read-out: Cmax",272 µg/mL
same,Tmax,"[3]; male, Sprague Dawley, Study Day 1, Male",10 h
same,AUC(0-t),"[3]; male, Sprague Dawley, Study Day 1, Male, read-out: AUC0-24 hr",2660 µg·h/mL
same,Cmax,"[3]; male, Sprague Dawley, Study Day 1, Male, read-out: Cmax",164 µg/mL
same,Tmax,"[3]; male, Sprague Dawley, Study Day 14, Male",10 h
same,AUC(0-t),"[3]; male, Sprague Dawley, Study Day 14, Male, read-out: AUC0-24 hr",3220 µg·h/mL
same,Cmax,"[3]; male, Sprague Dawley, Study Day 14, Male, read-out: Cmax",181 µg/mL
same,Ki,[4],~3 µM
same,inhibition at 10 µM,[5],4%
same,cardiovascular or respiratory findings,[6]; oral doses up to 1000 mg/kg in the rat and 200 mg/kg in the dog,no cardiovascular or respiratory findings
same,"adverse effects on gastrointestinal, respiratory, CNS, or cardiovascular systems",[6]; oral formulations,unlikely to cause adverse effects
same,concentration at 48 hr,"[7]; Sprague Dawley, rat, plasma, oral, male rats, free form, 1 mg/kg, read-out: Clast",0.0288 µg/mL
same,concentration at 48 h,"[7]; Sprague Dawley, rat, plasma, oral, male rats, free form, 30 mg/kg, read-out: Clast",0.044 µg/mL
same,concentration at 72 hr,"[7]; Sprague Dawley, rat, plasma, oral, male rats, free form, 150 mg/kg, read-out: Clast",0.0516 µg/mL
same,concentration at 48 hr,"[7]; Sprague Dawley, rat, plasma, oral, male rats, free form, 300 mg/kg, read-out: Clast",1.12 µg/mL
same,concentration at 72 hr,"[7]; Sprague Dawley, rat, plasma, oral, male rats, free form, 600 mg/kg, read-out: Clast",1.24 µg/mL
same,AUC(0-inf),"[7]; Sprague Dawley, rat, plasma, po, male rats, nominal dose 1 mg/kg",13.7 µg·h/mL
same,AUC(0-inf),"[7]; Sprague Dawley, rat, plasma, po, male rats, nominal dose 30 mg/kg",369 µg·h/mL
same,AUC(0-inf),"[7]; Sprague Dawley, rat, plasma, po, male rats, nominal dose 150 mg/kg",728 µg·h/mL
same,AUC(0-inf),"[7]; Sprague Dawley, rat, plasma, po, male rats, nominal dose 300 mg/kg",2530 µg·h/mL
same,AUC(0-inf),"[7]; Sprague Dawley, rat, plasma, po, male rats, nominal dose 600 mg/kg",3080 µg·h/mL
same,Cmax,[7]; [10],1.1 µg/mL
same,Tmax,[7]; [10],3 h
same,Cmax,[7]; [11],28.2 µg/mL
same,Tmax,[7]; [11],4 h
same,Cmax,[7]; [12],54.7 µg/mL
same,Tmax,[7]; [12],4.67 h
same,Cmax,[7]; [13],181 µg/mL
same,Tmax,[7]; [13],3.33 h
same,Cmax,[7]; [14],203 µg/mL
same,Tmax,[7]; [14],4.67 h
same,F,"[7]; male rats, free form, 1 mg/kg",>100%
same,tlast,"[7]; male rats, free form, 1 mg/kg",48 h
same,F,"[7]; male rats, free form, 30 mg/kg",>100%
same,tlast,"[7]; male rats, free form, 30 mg/kg",48 h
same,F,[7]; [15],47%
same,tlast,[7]; [15],72 h
same,F,[7]; [16],81%
same,tlast,[7]; [16],48 h
same,F,[7]; [17],50%
same,tlast,[7]; [17],72 h
same,half-life,"[7]; male, Sprague Dawley, rat, plasma, po, 1 mg/kg, male rats, free form, 1 mg/kg, read-out: t1/2 (converted)",7.65 h
same,half-life,"[7]; male, Sprague Dawley, rat, plasma, po, 30 mg/kg, male rats, free form, 30 mg/kg, read-out: t1/2 (converted)",6.83 h
same,half-life,"[7]; male, Sprague Dawley, rat, plasma, po, 150 mg/kg, male rats, free form, 150 mg/kg, read-out: t1/2 (converted)",8.07 h
same,half-life,"[7]; male, Sprague Dawley, rat, plasma, po, 300 mg/kg, male rats, free form, 300 mg/kg, read-out: t1/2 (converted)",5.86 h
same,half-life,"[7]; male, Sprague Dawley, rat, plasma, po, 600 mg/kg, male rats, free form, 600 mg/kg, read-out: t1/2 (converted)",7.49 h
same,half-life,"[7]; male, Sprague Dawley, rat, plasma, po, administered orally to rats, read-out: half-life",5 to 9 h
same,half-life,"[7]; male, Sprague Dawley, rat, plasma, po, male rats, 1 to 600 mg/kg oral dose range, read-out: terminal half-life",5.9 to 8.1 h
same,bioavailability,"[7]; male, Sprague Dawley, rat, plasma, rats, across the 1 to 600 mg/kg oral dose range",47 to 100%
same,Tmax,"[7]; male, Sprague Dawley, rat, plasma, rats, across the oral dose range, fed conditions",3 to 4.7 h
same,clearance,[7]; rat,very low clearance
same,human equivalent dose (based on body surface area),[8],at least 95 mg/kg
same,human total daily dose equivalent,[8],approximately 5700 mg
same,light microscopy of more than 40 organs and tissues,[8],no significant Compound 1 related findings
same,dosage tolerated without toxic effects,[8]; po,up to 600 mg/kg/day
same,ECG tracings and opthalmology examinations,[9],within normal limits
same,"RBC parameters, decreases",[9],7-14%
same,"total cholesterol, decreases",[9],21-29%
same,"triglycerides, decreases",[9],44-46%
same,light microscopy findings,[9]; 14 days,no significant Compound 1 related findings
same,dosage tolerated without toxic effect,"[9]; po, 14 days",up to 200 mg/kg/day
